Assay results from patent publication US11116741B2, “Method for the treatment of valvular heart disease comprising administering a composition comprising sarpogrelate” (CEVA SANTE ANIMALE, priority 2017, dated 2021).
“Also recorded” adds a separate entry of the source.

What was measured:
mitral valve leaflet = experiment: Histological morphometric analysis of mitral valve (thickness, cellularity) in NdF induced mitral remodeling; assay type: in vivo, mice
Procedure: (§1) These lesions appear as endothelial cells recruitment and migration into the valvular leaflets with intense production of extracellular matrix.
(§2) Before the start of the experiment, baseline systolic blood pressure, heart rate and body weight were measured. […] The dose of sarpogrelate administered was 2 mg/kg/day. The experiment started two days after the subcutaneous implantation so as to allow the activation of the mini-osmotic pump. Systolic blood pressure, heart rate and body weight were measured each week until the end of the experiment. At the term (day 28), urinary samples were collected from mice to determine 5-hydroxy-indol acetic acid concentration (5-HIAA which is a serotonin metabolite).
For morphometric analysis, one sagittal section (5 μm in thickness) is obtained after paraffin embedding and stained with hematoxylin and eosin stain. In each section, mitral valves are examined and cellularization counted. Extreme care is taken in sectioning the heart so that the valves are mainly cut transversely (with the attachment sides of the leaflets visible on both ends of the valve).
Valve histological morphometric analysis is performed visually using a microscope (Leica DM750®, Germany) with a 40× calibrated objective connected to a camera and a data acquisition and analysis system (Leica/Microsystems®LAS V4.8) by a single operator. Practically, on each section, the operator applies a large square of 250 μm×250 μm divided in 100 equal parts of 25 μm×25 μm each. For the quantification, the whole mitral valve leaflet section is divided in three equal parts. The proximal region is the one nearest the base cusp, followed by the medial and the distal regions. The proximal, medial and distal parts thicknesses are measured on three distinct sites in each region. The mean result is expressed in μm, in table 8.
The density of endothelial cells is evaluated in proximal, medial and distal regions. The numbers of cells is determined on a leaflet length of 25×4 μm (100 μm2). The result (mean) is expressed in number of cells per 100 μm2.

[1] = Blood 5-HT and urine 5-HIAA concentrations in mice given NdF by mini-osmotic pump; assay type: in vivo
Procedure: as §1, §2
Then, mice were euthanized using an injection of a […] dose of pentobarbital followed by an intra-cardiac blood puncture and whole blood serotonin concentration was determined.
All plasma was collected and analyzed in a single run.

[2] = Body weight, food intake, water intake, systolic blood pressure and heart rate in the NdF mouse model; assay type: in vivo, mice; settings: for Water intake: estimation of the water intake per cage per day: g = ml
Procedure: as §2

[3] = target: 5-HT2A receptor compared to the 5-HT2B one (Homo sapiens, UniProt P28223); settings: in words; Life Sci. 73, 193-207; cited from earlier work
5-HT2A receptor compared to the 5-HT2B one, sequence (P28223 whole entry): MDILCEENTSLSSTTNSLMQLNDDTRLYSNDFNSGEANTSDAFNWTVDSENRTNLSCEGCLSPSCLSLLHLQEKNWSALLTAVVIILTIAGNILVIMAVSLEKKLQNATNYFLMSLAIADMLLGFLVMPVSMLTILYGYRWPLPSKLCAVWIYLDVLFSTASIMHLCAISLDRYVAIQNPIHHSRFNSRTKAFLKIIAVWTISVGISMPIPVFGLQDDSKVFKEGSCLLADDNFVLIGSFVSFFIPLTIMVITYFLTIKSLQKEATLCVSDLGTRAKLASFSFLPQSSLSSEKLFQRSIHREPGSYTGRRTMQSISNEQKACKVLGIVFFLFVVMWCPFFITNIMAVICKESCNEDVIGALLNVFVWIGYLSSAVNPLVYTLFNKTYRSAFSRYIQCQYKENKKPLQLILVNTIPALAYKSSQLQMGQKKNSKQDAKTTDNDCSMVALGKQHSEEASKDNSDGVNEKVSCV

With `C[C@H](N)Cc1cccc(C(F)(F)F)c1` [NdF, nordexfenfluramine] the “Mitral valve thickness (mean)” value (mitral valve leaflet; day 28, mean of proximal, medial and distal parts, NdF 1 mg/kg/day, sarpogrelate 2 mg/kg/day) was 67.467 μm, the “Endothelial cellularity (mean)” value (mitral valve leaflet; day 28, mitral valve) was 9.988 cells/0.01 mm^2 and the “Interstitial cellularity (mean)” value (mitral valve leaflet; day 28, mitral valve) was 22.011 cells/0.01 mm^2. The “Effect on mitral valve thickness” value (mitral valve leaflet; in words) was “massive increase”, the “Effect on valve interstitial cellularity” value (mitral valve leaflet; in words) was “increase” and the “Effect on total blood (plasma) concentration of serotonin (5-HT)” value ([1]; in words) was “increases”. The 5-HIAA ([1]; urine, day 28, mean, NdF 1 mg/kg/day, sarpogrelate 2 mg/kg/day) was 10.62 mg/L, the 5-HT ([1]; whole blood, day 28, mean, NdF 1 mg/kg/day, sarpogrelate 2 mg/kg/day) was 2259.78 µg/L and the Body weight ([2]; Week 0 (baseline)) was 25.10 g. It also gave a Heart rate ([2]; Week 0 (baseline)) of 539.7 beats/min, a Systolic blood pressure ([2]; Week 0 (baseline)) of 100.2 mmHg and a Body weight ([2]; Week 1) of 26.20 g. For the same compound, the “Food intake: estimation of the food intake for each mouse per week” value (“Food intake: estimation … per week” below) ([2]; Week 1) was 32.83 g, the Heart rate ([2]; Week 1) was 579.5 beats/min and the Systolic blood pressure ([2]; Week 1) was 108.9 mmHg. For the same compound, the “Water intake: estimation of the water intake per cage per day” value (“Water intake: estimation … per day” for short) ([2]; Week 1) was 31.43 g, the “Food intake: estimation … per week” value ([2]; Week 2) was 30.71 g and the Heart rate ([2]; Week 2) was 571.8 beats/min. The Systolic blood pressure ([2]; Week 2) was 97.5 mmHg, the “Water intake: estimation … per day” value ([2]; Week 2) was 31.86 g and the Body weight ([2]; Week 3) was 27.20 g. The “Food intake: estimation … per week” value ([2]; Week 3) was 35.13 g, the Heart rate ([2]; Week 3) was 498.0 beats/min and the “Water intake: estimation … per day” value ([2]; Week 3) was 32.14 g. The Body weight ([2]; Week 4) was 26.50 g, the “Food intake: estimation … per week” value ([2]; Week 4) was 26.38 g and the Heart rate ([2]; Week 4) was 559.3 beats/min. For the same compound, the Systolic blood pressure ([2]; Week 4) was 99.5 mmHg and the “Water intake: estimation … per day” value ([2]; Week 4) was 33.07 g.

In the case of `COc1cccc(CCc2ccccc2OCC(CN(C)C)OC(=O)CCC(=O)O)c1` (centres unmarked) [sarpogrelate], the “Effect on interstitial migration of endothelial cells” value (mitral valve leaflet; in words) is reported as “reduces”, the “Effect on mitral valve thickness” value (mitral valve leaflet; in words) is reported as “nearly completely prevented; also recorded: markedly reduces” and the “Effect on valve interstitial cellularity” value (mitral valve leaflet; in words) is reported as “prevents the increase”. For the same compound, the “Effect on total blood (plasma) concentration of serotonin (5-HT)” value ([1]; in words) was “reduces”, the “Effect on urinary 5-HIAA” value ([1]; in words) was “reduces” and the “Receptor subtype preference (5-HT2A vs 5-HT2B)” value [3] was “preferably blocking the 5-HT2A receptor”.
